PubChem BioAssay (NCI)
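Compound exposure: 48 hours, 5 concentrations, 96-well plates. TGI marks complete inhibition of growth.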

Columns and labels:
Assay in all cases: NCI tumour cell line growth inhibition, 48 h
CCRF-CEM leukemia = test system: CCRF-CEM leukemia
KM12 colon = test system: KM12 colon
HCT-116 colon = test system: HCT-116 colon
RXF 393 renal = test system: RXF 393 renal
OVCAR-4 ovarian = test system: OVCAR-4 ovarian
COLO 205 colon = test system: COLO 205 colon
RXF-631 renal = test system: RXF-631 renal
LXFL 529 NSCLC = test system: LXFL 529 NSCLC
HCT-15 colon = test system: HCT-15 colon
OVCAR-8 ovarian = test system: OVCAR-8 ovarian
HT29 colon = test system: HT29 colon
M19-MEL melanoma = test system: M19-MEL melanoma
HOP-18 NSCLC = test system: HOP-18 NSCLC
SW-620 colon = test system: SW-620 colon
M14 melanoma = test system: M14 melanoma
TK-10 renal = test system: TK-10 renal
NCI-H460 lung = test system: NCI-H460 lung
NCI-H226 lung = test system: NCI-H226 lung
SF-268 CNS = test system: SF-268 CNS
UO-31 renal = test system: UO-31 renal
NCI-H522 lung = test system: NCI-H522 lung
SN12C renal = test system: SN12C renal
DMS 273 small cell lung = test system: DMS 273 small cell lung
SF-295 CNS = test system: SF-295 CNS
UACC-62 melanoma = test system: UACC-62 melanoma
SF-539 CNS = test system: SF-539 CNS
K-562 leukemia = test system: K-562 leukemia
SNB-19 CNS = test system: SNB-19 CNS
EKVX NSCLC = test system: EKVX NSCLC
A549 NSCLC = test system: A549 NSCLC
UACC-257 melanoma = test system: UACC-257 melanoma
SR leukemia = test system: SR leukemia
RPMI-8226 leukemia = test system: RPMI-8226 leukemia
U251 CNS = test system: U251 CNS
OVCAR-5 ovarian = test system: OVCAR-5 ovarian
786-0 renal = test system: 786-0 renal
SNB-78 CNS = test system: SNB-78 CNS
SK-MEL-2 melanoma = test system: SK-MEL-2 melanoma
NCI-H23 lung = test system: NCI-H23 lung
CAKI-1 renal = test system: CAKI-1 renal
HCC-2998 colon = test system: HCC-2998 colon
KM20L2 colon = test system: KM20L2 colon
IGROV1 ovarian = test system: IGROV1 ovarian
MALME-3M melanoma = test system: MALME-3M melanoma
MOLT-4 leukemia = test system: MOLT-4 leukemia
XF 498 CNS = test system: XF 498 CNS
A498 renal = test system: A498 renal
ACHN renal = test system: ACHN renal
SK-MEL-5 melanoma = test system: SK-MEL-5 melanoma
SK-MEL-28 melanoma = test system: SK-MEL-28 melanoma

Measured: TGI

COC(=O)C(=O)C(C(=O)C1=NS(=O)(=O)c2cc(S(N)(=O)=O)c(Cl)cc2N1)c1nc2ccc(C(=O)c3ccccc3)cc2[nH]c1=O (stereo not given)
> 100 µM: all assays above
